Assay results reported in patent publication US7998985B2, “1,5-diphenyl-3-pyridinylamino-1,5-dihydropyrrolidin-2-one as CB1 receptor modulator” (Eli Lilly and Company, priority 2006, dated 2011).

How the values were obtained:
rat CB1 receptor = target: T1, rat CB1 receptor (Rattus norvegicus, UniProt P20272); assay: Antibody-capture SPA GTP-γ-35S binding, antagonist/inverse agonist mode, rat CB1 (CHO membranes); assay type: biochemical; conditions: Rat CB1 (CHO cells) membranes; vs saturating methanandamide; mean ± SEM; read-out: Inverse Agonist Potency (Kb)
T1 construct: purchased Applied Cell Sciences, Gaithersburg, Md; PerkinElmer Life Sciences, Boston, Mass; host or cells: CHO cells (recombinant expression), membranes
T1 sequence (P20272 whole entry): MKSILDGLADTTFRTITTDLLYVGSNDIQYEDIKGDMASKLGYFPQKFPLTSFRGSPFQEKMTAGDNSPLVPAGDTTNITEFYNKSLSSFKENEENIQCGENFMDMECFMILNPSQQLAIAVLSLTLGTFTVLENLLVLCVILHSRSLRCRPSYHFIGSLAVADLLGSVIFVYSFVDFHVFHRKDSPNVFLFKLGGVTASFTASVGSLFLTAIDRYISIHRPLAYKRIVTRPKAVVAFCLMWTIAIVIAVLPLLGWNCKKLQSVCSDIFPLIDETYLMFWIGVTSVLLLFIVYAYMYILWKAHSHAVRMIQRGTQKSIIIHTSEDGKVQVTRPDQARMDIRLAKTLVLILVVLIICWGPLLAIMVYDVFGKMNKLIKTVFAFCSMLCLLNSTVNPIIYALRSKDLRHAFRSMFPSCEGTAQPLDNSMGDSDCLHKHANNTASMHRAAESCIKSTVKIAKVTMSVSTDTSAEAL
Method: Antibody-Capture SPA GTP-γ-^35S Binding
In cell membranes expressing human or rat CB1 or CB2 receptor, test (3R,5R)-3-[1-methyl-1-(6-trifluoromethyl-pyridin-3-yl)-ethylamino]-1-(4-trifluoromethyl-phenyl)-5-(3-trifluoromethoxy-phenyl)-pyrrolidin-2-one 4-methylbenzenesulfonate (referred to as “Example 2”) for its antagonist/inverse agonist functional GTP-binding. In a 96 well format using a modified antibody capture technique (DeLapp et al., 1999), measure GTP-γ^35S binding. Briefly incubate for 30 minutes at room temperature the GTP-binding assay buffer (20 mM Hepes, 100 mM NaCl, 5 mM MgCl2, pH 7.4), the CHO or Sf9 cell membranes expressing CB1 or CB2, (Applied Cell Sciences, Gaithersburg, Md.; PerkinElmer Life Sciences, Boston, Mass.; prepare membranes as previously described (DeLapp et al., 1999)), Example 2 and the 500 pM GTP-γ-^35S (PerkinElmer Life Sciences, Boston, Mass.). Perform antagonist dose responses in the presence of a saturating dose of a full agonist (methanandamide). […]
To analyze data, subtract background from all wells. […] Determine Kb values using a modification of the Cheng-Prusoff relationship: Kb=IC50/(1+[agonist]/EC50) where IC50 is determined from a four parameter fit of displacement curves, [agonist]=EC50 of full agonist, and EC50 is determined from a four parameter fit of a full agonist concentration response curve (Cheng and Prusoff 1973). […]

[1] = system: diet-induced obese (DIO) male Long-Evans rats; assay: Feeding model in diet-induced obese (DIO) rats, 14 days; assay type: in vivo, rat
Source text: Methods: Administer Example 2 to diet-induced obese (DIO) male Long-Evans rats. Establish DIO by ad lib feeding from weanling of a diet consisting of 40% fat, 39% carbohydrate and 21% protein caloric content for at least 12 weeks. Define compound potency by T17 (the dose required to produce a difference from the vehicle group of 17 grams). This represents a minimally biologically relevant reduction of 3-4% of body weight compared to vehicle treatment after 2 weeks.

[2] = system: female Sprague-Dawley rats; assay: Atypical antipsychotic (olanzapine) weight gain model; assay type: in vivo, rat; conditions: 0.3 and 1 mg/kg Example 2 plus olanzapine, days 15-28
Source text: Methods: Maintain adult lean, female Sprague-Dawley rats ad libitum on normal rodent chow Purina LabDiet 5001 (12.3% fat) and water. […] Follow food intake, monitor body weight and change in fat mass over a two week treatment.

Male Sprague Dawley rats = assay: cFos activation in rat brain, alone and with clozapine; assay type: in vivo
Source text: Characterize Example 2 for its ability to activate gene expression and neurochemical efflux in cortical and subcortical regions and to interact with the prototypical atypical antipsychotic agent clozapine.
Methods: House Male Sprague Dawley rats (155-175 g) for 1 week prior to experimentation. Prepare Example 2 in a vehicle suspension of 1% Sodium carboxymethyl cellulose, 0.5% Sodium lauryl sulfate, 0.05% Antifoam, 0.085% Povidone and administer, to rats (e.g., male Sprague Dawley rats, 155-175 g) p.o. (a dose of 1 or 10 mg/kg). Control rats receive vehicle. Administer clozapine (Sigma) 1 hour later at a concentration of 8 mg/mL in a vehicle solution of 0.4% lactic acid at a dose of 8 mg/kg s.c. Sacrifice animals (n=7-8 per group) by decapitation 2 hours after administration of clozapine or vehicle for clozapine. Remove rapidly whole brains and immediately immerse in isopentane (2-methyl butane) over dry ice. Cut coronal sections through the prefrontal cortex (PFC), nucleus accumbens (NAc) and dorsolateral striatum (DL-Str) at 14 μm and perform Fos immunohistochemistry. Assess atypicality index (Robertson et al., 1994) using the following formula: Atypical Index=(NAcD−NAcV)−(DL-StrD−DL-StrV) where the average number of Fos-li neurons in NAc=nucleus accumbens, D=drug, V=vehicle, DL-Str=dorsolateral striatum. Analyze data using a one-way ANOVA followed by Newman-Keul's post hoc test (Graph Pad Prism 4.03). Set the level of significance at P<0.05.

Structure (SMILES): CC(C)(N[C@@H]1C[C@H](c2cccc(OC(F)(F)F)c2)N(c2ccc(C(F)(F)F)cc2)C1=O)c1ccc(C(F)(F)F)nc1.Cc1ccc(S(=O)(=O)O)cc1 [Example 2, (3R,5R)-3-[1-methyl-1-(6-trifluoromethyl-pyridin-3-yl)-ethylamino]-1-(4-trifluoromethyl-phenyl)-5-(3-trifluoromethoxy-phenyl)-pyrrolidin-2-one, 4-methylbenzenesulfonate (1:1)]
- Kb (rat CB1 receptor): 1.27 ± 0.2 nM
- fat free mass (QNMR) [1]: minimal changes in fat free mass at one of the highest doses
- cumulative body weight ([1]; 14-day oral treatment): reduction of cumulative body weight
- T17 (dose producing a 17 gram body weight difference from vehicle) ([1]; 14-day oral treatment, estimated): 0.13 mg/kg
- efficacy dose (T17) for change in body mass from control ([1]; daily oral, 14 days, as restated): 0.13 mg/kg/day
- fat mass (QNMR) ([1]; doses 0.1-10 mg/kg): significant reductions in fat mass
- cumulative food intake ([1]; once daily orally, 14 days): Decrease cumulative food intake
- fat free mass under olanzapine [2]: no changes in fat free mass
- fat mass gain under olanzapine [2]: significant reduction in fat mass gain
- effect on clozapine-induced Fos reactivity (Male Sprague Dawley rats; 1 and 10 mg/kg p.o. given with clozapine 8 mg/kg s.c.): enhancing the effects of clozapine alone
- cortical and subcortical Fos reactivity, compound alone (Male Sprague Dawley rats; Example 2 1 or 10 mg/kg p.o.): tend to or significantly enhance cortical and subcortical Fos reactivity
- atypicality (ventral vs. dorsal striatal Fos impact) (Male Sprague Dawley rats; Example 2 added to clozapine): a neural signature of greater atypicality
